Patent US12687540B2, “Amyloid-binding compounds and methods of use thereof” (Vanderbilt University, priority 2019, dated 2026)
Like-named read-outs stand apart in the source and are kept apart here. Each block holds one compound with its values, some of them ahead of it.

Key:
[1] = biological target: T1, endogenous amyloid-β (Abeta) plaques in the 5XFAD brain lysate (Homo sapiens, UniProt P05067); assay: HATCO assay (high-throughput amyloid Thioflavin competitive binding optical assay), thioflavin-T fluorescence readout; design: species or system 5XFAD mice; conditions: for IC50: competition with thioflavin-T for Abeta in 5XFAD brain lysate, 384-well, 4-parameter fit
T1 construct: coexpressed five familial AD (FAD) and additively increase Abeta-42 production; from tissue; host or cells: midbrain lysate (supernatant) of 8-month-old 5XFAD transgenic mice
T1 sequence (P05067 672-713 limits assumed): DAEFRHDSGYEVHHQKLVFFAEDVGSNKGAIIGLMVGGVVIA
Source text: However, when bound to Abeta plaque, its FL increases dramatically and results in a strong FL signal with a characteristically shifted λmax to approximately 485 nm. In view thereof, as opposed to existing methods that detect binding of the dye through increased fluorescence, the present methods identify amyloid-binding compounds through a lack of binding between the dye and the amyloid, as evidenced by attenuated fluorescence. […] Accordingly, in some embodiments, the method of screening includes combining the target compound(s) with a dye (e.g., Thioflavin-T) and endogenous amyloid (e.g., endogenous amyloid-β (Abeta) plaques in the 5XFAD brain lysate), then measuring the fluorescence of the combination. In some embodiments, the fluorescence of the combination is then compared to negative and/or positive control.
HATCO competitive binding study. […] To facilitate the generation of concentration-response curves, fluorescence at each data point was averaged on a compound-by-compound basis and plotted as a function of concentration. […] From this curve, IC50 values for each compound were calculated by fitting the data to a 4-parameter logistical model in the GraphPad software package.
Brain lysate preparation—Excised midbrains of 5XFAD (8-month-old) or wt mice (age-matched) were homogenized for 5 min in 200 μL of buffer comprised of 21.4 g sucrose, 5 mL of 1 M tris base, and 0.5 mL of 0.5 M EDTA/250 mL DPBS using the T-25 basic Ultra-Turrax homogenizer. Additional 100 μL aliquots of this buffer were then added to the homogenized sample and re-homogenized for 2 min until a total added volume of 800 μL was attained. The sample was diluted to 4 mL total volume using another buffer comprised of 5% BSA, and 0.03% Tween 20 in DPBS solution. Roche Complete protease inhibitor tablets were added to both buffers immediately prior to use (1 tablet/10 mL buffer). The sample was centrifuged at 16,000 g for 30 min at 4° C. Aliquots of the supernatant were stored at −80° C. until use.
HATCO HTS assay—To translate the assay initially performed on a cuvette to a 384-well format, the general protocol includes the following steps: A fresh stock solution of thioflavin-T was prepared in distilled and deionized water after passing through a micro filter. The concentration of […] was measured according to Beer's law with an extinction coefficient of 26,620 M^−1cm^−1 at 416 nm. The stock solution was stored in darkness using aluminum foil and kept at 4° C. throughout the assay. Unless stated, each assaying well contained 10 μM of thioflavin-T, 5 mg/mL of freshly isolated and homogenized brain lysate (5 μL) obtained from 5XFAD mice and with 30 μM of screening compounds. […] For the negative control, the wells contained the same components minus positive control. The protein concentration of brain lysate throughout the study was normalized. After equilibration for 10 min at room temperature, the FL signal of the sample was measured using a Biotek Synergy NEO plate reader at an emission lambda max of 485 nm using an excitation of 465 nm and the signals of the different conditions were analyzed. The final volume per well was 50 μL. All assays were performed using a single dose of screening compounds in triplicate.
Once the preliminary hit compounds were identified, a cross-screening protocol was employed to validate the hits with duplicated concentrations for each hit.

[2] = mouse, in vivo
Protocol: In the HPLC experiment, WT and 5XFAD mice (n=3, each) were injected with promethazine via the tail veins, and subsequently perfused 10 min or 4 h post-injection. Freshly isolated brains were homogenized to facilitate extraction and quantification via HPLC using the procedure we reported earlier.

Abeta plaques = assay: Autoradiography of human brain tissues from Alzheimer's disease patients with [11C]promethazine PET probe; assay type: binding; conditions: human AD brain tissue sections soaked in probe in PBS; compared with a large excess of cold promethazine
Source text: (A) Tissues ([…]) on glass slides were soaked in [^11C]promethazine PET probe diluted in PBS solution. (B) Tissues were soaked in the same solution as (A), albeit with the presence of a large excess of “cold” (unlabeled) promethazine, denoted as PMZ in the figure.

Compound: 1,6,7,1′,6′,7′-Hexahydroxy-5,5′-diisopropyl-3,3′-dimethyl-[2,2′]binaphthalenyl-8,8′-dicarbaldehyde [VU0243640]
IC50 [1]: 84.2 µM

Compound: CC(CN1c2ccccc2Sc2ccccc21)N(C)C (centres unmarked) [Promethazine, N,N-dimethyl-1-(10H-phenothiazin-10-yl)propan-2-amine]
IC50 [1]: 53.6 µM
increase in promethazine retention in Aβ-burdened brains (5XFAD vs WT) ([2]; 5XFAD versus WT, 10 min): ~4 fold
level of promethazine measured in brain (mean) ([2]; 5XFAD, 10 min): 9.62 µg
original dose retained within the brain ([2]; 5XFAD, 10 min): 2%
original dose retained within the brain ([2]; 5XFAD, 240 min): 0.5%
level of promethazine measured in brain (mean) ([2]; 10 min): 2.57 µg
original dose retained within the brain ([2]; 10 min): 0.5%
original dose retained within the brain ([2]; 240 min): 0.01%

Compound: Oc1ccc(/C=C/c2cc(O)cc(O)c2)cc1 [Resveratrol, (E)-5-(4-hydroxystyryl)benzene-1,3-diol]
FL signal of thioflavin-T at 485 nm was reduced ([1]; 100 μM): 4.4%
FL signal of thioflavin-T at 485 nm was reduced ([1]; 500 μM): 25.9%
FL signal of thioflavin-T at 485 nm was reduced ([1]; 2000 μM): 51%

Compound: O=C1C(Cl)=C(Cl)C(=O)C(Cl)=C1Cl [VU0243635, 2,3,5,6-Tetrachloro-[1,4]benzoquinone]
IC50 [1]: 90.8 µM

Compound: CC(CN1c2ccccc2Sc2ccccc21)N(C)C (centres unmarked) [[^11C]promethazine]
binding to Abeta plaques by autoradiography (Abeta plaques): bound to Abeta plaques

Other lines, results leading:

IC50 [1]: 68.1 µM
Compound: O=C(O)c1cc(/N=N/c2ccc(S(=O)(=O)Nc3ccccn3)cc2)ccc1O [VU0243360, 2-Hydroxy-5-[4-(pyridine-2-ylsulfamoyl)-phenylazo]-benzoic acid]

IC50 [1]: 74.3 µM
Compound: Nc1ccc(/N=N/c2ccccc2)c(N)n1 [VU0244402, 3-Phenylazo-pyridine-2,6-diamine]

IC50 [1]: 61.2 µM
Compound: O=C(N/N=C/c1ccc([N+](=O)[O-])o1)c1cc([N+](=O)[O-])cc([N+](=O)[O-])c1O [VU0656139, 2-Hydroxy-3,5-dinitro-benzoic acid (5-nitro-furan-2-ylmethylene)-hydrazide]
